Measured values published in PMC6941124 (International Journal of Molecular Sciences, 2019).
Several values for one entry are separate records, joined by “and”; a condition that tells them apart may be missing. Identical values can stand only once.

How the values were obtained:
[1] = biological target: CK1δ wild type (GST-CK1δ) (Homo sapiens, UniProt P48730); test: in vitro kinase assay, GST-CK1δ wild type; assay type: biochemical; details: for Kinase activity of CK1δ in presence of inhibitor: 10 µM inhibitor, initial screening; for IC50: dilution series 0.005−10 µM, mean ± standard error, triplicate
Protocol: Overexpression and purification of GST-CK1δ fusion proteins, either wild type or mutant, were performed as described previously.
Each kinase assay reaction was performed in kinase buffer (25 mM Tris-HCl (pH 7.5), 10 μM ATP, 10 mM MgCl2, 100 μM EDTA) in presence of purified GST-CK1δ kinase as source of enzyme (either wild type or mutant), an assay-specific substrate (α-casein, GST-p53^1−64, or GST-β-catenin^1−181), and radiolabeled ATP (2 μCi [γ-^32P]-ATP). For performing Michaelis–Menten analysis increasing substrate concentrations were used (α-casein: 0.39−25 μM; GST-p53^1−64: 0.09−1.87 μM; GST-β-catenin^1−181: 0.07−1.32 μM). For biological evaluation of small molecule inhibitors (SMIs), each inhibitor compound was either tested at 10 μM concentration for initial screening or by using a dilution series (0.005−10 µM) for determination of IC50 values. DMSO was used as control. Reactions were incubated for 30 min at 30 °C and reactions were stopped using 5x SDS-loading buffer (250 mM Tris-HCl [pH 6.8], 25% (v/v) β-mercaptoethanol (MSH), 50% (v/v) glycerol, 10% (w/v) SDS, 0.5% (w/v) bromphenol blue). Subsequently, samples were separated by SDS-PAGE using 12.5% acrylamide gels, stained with Coomassie, and phosphorylated substrates were visualized on X-ray film. Incorporation of radiolabeled phosphate was quantified by scintillation counting of Coomassie-stained substrate bands. Defined dilutions of the reaction master mix were counted as well in order to convert results obtained as counts per minute (CPM) to units of transferred phosphate in pmol/min. Michaelis–Menten analysis was performed using GraphPad Prism 6 (GraphPad Software, San Diego, CA, USA).

[2] = biological target: CK1α (Homo sapiens, UniProt P48729); test: in vitro kinase assay, CK1α; assay type: biochemical; details: 10 µM inhibitor, initial screening
[3] = biological target: CK1γ; test: in vitro kinase assay, CK1γ; assay type: biochemical; details: 10 µM inhibitor, initial screening
[4] = biological target: CK1ε (Homo sapiens, UniProt P49674); test: in vitro kinase assay, CK1ε; assay type: biochemical; details: 10 µM inhibitor, initial screening
[5] = system: HeLa CK1δ−/− cells; test: MTT viability assay, HeLa CK1δ−/− cells; assay type: cell-based; details: 5 μM, 48 h
Protocol: (§1) Parental HeLa cells, as well as HeLa CSNK1D knock-out cells (CK1δ^−/−) (generated by CRISP/Cas9 technology and provided by EDIGENE, Beijing, China), were cultured in Dulbecco’s Modified Eagle medium (DMEM). HCT-116 and HT-29 colon cancer cells were cultured in McCoy’s 5A medium whereas SW480 and SW620 colon cancer cells were cultured in Leibovitz’s L-15 medium. All media were supplemented with 10% (v/v) fetal bovine serum (FBS), 100 units/mL penicillin, and 100 µg/mL streptomycin. DMEM-based medium for the culture of HeLa CSNK1D knock-out cells was additionally supplemented with 1 μg/mL puromycin. Cell cultures were maintained at 37 °C in a humidified atmosphere containing 5% CO2. Cells were transfected using Effectene transfection reagent (Qiagen, Hilden, Germany) according to the manufacturer’s instructions. For selection of stably transfected clones, transfected cells were grown in selective medium, containing 0.6 mg/mL of G-418 (Calbiochem-Merck Millipore, Darmstadt, Germany).
(§2) For performing MTT viability assays, cells were seeded in a 96-well plate (5 × 10^4 cells/well for HeLa cells (parental, CK1δ^−/−, or CK1δ^−/− cells stably transfected with wild type or mutant CK1δ), HCT-116, and HT-29 cells or 7.5 × 10^4 cell/well for SW480 and SW620 cells). After 24 h, old medium was replaced with fresh medium containing either the small molecule of interest or DMSO as control. After 48 h of treatment, 10 μL MTT (5 mg/mL) was added and incubated at 37 °C for 4 h. The medium was then gently removed and 100 μL of acidic isopropanol was added (90% (v/v) isopropanol, 10% (v/v) 1 N HCl). Cell culture plates were then shaken for 30 min at room temperature. Absorbance was measured at 570 nm with TriStar^2 LB942 Microplate Reader (Berthold Technologies, Bad Wildbad, Germany) and data analysis was performed using GraphPad Prism 6 (GraphPad Software, San Diego, CA, USA).

[6] = system: HeLa CK1δ−/− cells expressing CK1δ T67S; test: MTT viability assay, HeLa CK1δ−/− cells expressing CK1δ T67S; assay type: cell-based; details: 5 μM, 48 h
Protocol: as §1, with “For selection of stably transfected clones, transfected cells were grown in selective medium, containing 0.6 mg/mL of G-418 (Calbiochem-Merck Millipore, Darmstadt, Germany).” left out
(§3) For performing MTT viability assays, cells were seeded in a 96-well plate (5 × 10^4 cells/well for HeLa cells (parental, CK1δ^−/−, or CK1δ^−/− cells stably transfected with wild type or mutant CK1δ), HCT-116, and HT-29 cells or 7.5 × 10^4 cell/well for SW480 and SW620 cells). […] Absorbance was measured at 570 nm with TriStar^2 LB942 Microplate Reader (Berthold Technologies, Bad Wildbad, Germany) and data analysis was performed using GraphPad Prism 6 (GraphPad Software, San Diego, CA, USA).

[7] = system: HeLa CK1δ−/− cells expressing CK1δ R127Q; test: MTT viability assay, HeLa CK1δ−/− cells expressing CK1δ R127Q; assay type: cell-based; details: 5 μM, 48 h
Protocol: as §1, with “For selection of stably transfected clones, transfected cells were grown in selective medium, containing 0.6 mg/mL of G-418 (Calbiochem-Merck Millipore, Darmstadt, Germany).” left out
as §3

[8] = system: HeLa CK1δ−/− cells expressing CK1δ R168H; test: MTT viability assay, HeLa CK1δ−/− cells expressing CK1δ R168H; assay type: cell-based; details: 5 μM, 48 h
Protocol: as §1, with “For selection of stably transfected clones, transfected cells were grown in selective medium, containing 0.6 mg/mL of G-418 (Calbiochem-Merck Millipore, Darmstadt, Germany).” left out
as §3

[9] = system: HCT-116 colon cancer cells; test: MTT viability assay, HCT-116; assay type: cell-based; details: 48 h, dose series (Figure S2)
Protocol: as §1, with “For selection of stably transfected clones, transfected cells were grown in selective medium, containing 0.6 mg/mL of G-418 (Calbiochem-Merck Millipore, Darmstadt, Germany).” left out
as §3

[10] = system: HT-29 colon cancer cells; test: MTT viability assay, HT-29; assay type: cell-based; details: 10 µM, 48 h, initial screening (Figure 10a)
Protocol: as §1, §2

[11] = system: SW480 colon cancer cells; test: MTT viability assay, SW480; assay type: cell-based, human; details: 10 µM, 48 h, initial screening (Figure 10a)
Protocol: as §1, §2

[12] = system: SW620 colon cancer cells; test: MTT viability assay, SW620; assay type: cell-based, human; details: 48 h; for Reduction of cell viability, SW620: 10 µM, initial screening (Figure 10a)
Protocol: as §1, §2

Chain of CK1δ wild type (GST-CK1δ) (P48730 whole entry, the tested form may be a part): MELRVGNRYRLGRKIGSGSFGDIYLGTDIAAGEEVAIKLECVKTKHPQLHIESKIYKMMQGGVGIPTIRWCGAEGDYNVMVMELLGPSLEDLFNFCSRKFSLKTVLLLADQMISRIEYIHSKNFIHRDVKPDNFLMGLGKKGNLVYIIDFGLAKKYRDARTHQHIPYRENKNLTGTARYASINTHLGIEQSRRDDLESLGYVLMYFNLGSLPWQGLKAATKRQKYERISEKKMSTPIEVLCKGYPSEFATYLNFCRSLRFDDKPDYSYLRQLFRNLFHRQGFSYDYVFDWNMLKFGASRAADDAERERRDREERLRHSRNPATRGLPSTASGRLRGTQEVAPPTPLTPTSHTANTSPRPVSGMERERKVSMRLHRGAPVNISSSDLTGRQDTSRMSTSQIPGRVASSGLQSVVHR
Chain of CK1α (P48729 whole entry): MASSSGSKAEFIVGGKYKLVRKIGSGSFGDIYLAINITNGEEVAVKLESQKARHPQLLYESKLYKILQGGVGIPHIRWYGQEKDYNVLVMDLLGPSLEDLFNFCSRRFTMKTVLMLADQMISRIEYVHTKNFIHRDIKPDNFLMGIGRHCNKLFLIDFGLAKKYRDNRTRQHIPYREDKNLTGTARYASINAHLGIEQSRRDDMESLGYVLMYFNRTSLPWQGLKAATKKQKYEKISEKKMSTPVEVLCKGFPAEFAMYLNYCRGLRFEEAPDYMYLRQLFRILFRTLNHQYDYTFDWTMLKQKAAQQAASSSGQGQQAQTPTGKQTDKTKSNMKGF
Chain of CK1ε (P49674 whole entry): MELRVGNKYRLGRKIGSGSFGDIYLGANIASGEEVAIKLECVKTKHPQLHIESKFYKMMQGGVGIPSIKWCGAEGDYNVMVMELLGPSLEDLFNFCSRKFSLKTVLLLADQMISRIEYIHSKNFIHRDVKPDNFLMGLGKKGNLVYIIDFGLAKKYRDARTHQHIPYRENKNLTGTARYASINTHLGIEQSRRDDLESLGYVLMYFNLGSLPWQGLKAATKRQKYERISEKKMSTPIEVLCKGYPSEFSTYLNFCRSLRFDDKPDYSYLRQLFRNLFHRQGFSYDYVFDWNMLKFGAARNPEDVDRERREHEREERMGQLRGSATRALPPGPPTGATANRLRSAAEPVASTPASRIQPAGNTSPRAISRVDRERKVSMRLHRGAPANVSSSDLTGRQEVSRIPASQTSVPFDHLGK

For COc1ccc(Cn2c(SCC(=O)Nc3nc4ccc(C(F)(F)F)cc4s3)nccc2=O)cc1 [Compound 20, 2-((3-(4-Methoxybenzyl)-4-oxo-3,4-dihydropyrimidin-2-yl)thio)-N-(6-(trifluoromethyl)benzo[d]thiazol-2-yl)acetamide], the “Kinase activity of CK1δ in presence of inhibitor” value [1] was “strongly inhibited”, the IC50 [1] was 90 nM and 86 nM and the “Reduction of CK1α activity” value [2] was “at least 50%”. The “Kinase activity of CK1γ in presence of inhibitor” value [3] was “not affected”, the “Kinase activity of CK1ε in presence of inhibitor” value [4] was “strongly inhibited” and the “Cell viability of HeLa CK1δ−/− compared to parental cells or HeLa CK1δ+/+ cells” value [5] was “significantly less affected”. For the same compound, the “Cell viability of HeLa CK1δ−/− cells expressing CK1δ T67S vs CK1δ WT” value [6] was “no mutant-specific effects”, the “Cell viability of HeLa CK1δ−/− cells expressing CK1δ R127Q vs CK1δ WT” value [7] was “no mutant-specific effects” and the “Cell viability of HeLa CK1δ−/− cells expressing CK1δ R168H vs CK1δ WT” value [8] was “no mutant-specific effects”. The “Reduction of cell viability, HCT-116” value ([9]; 0.625 µM) was “approximately 30%”, the “Reduction of cell viability, HT-29” value [10] was “approximately 35%” and the “Reduction of cell viability, SW480” value [11] was “approximately 35%”. The “Reduction of cell viability, SW620” value [12] was “about 60%”, the “Dose-dependent effects on SW620 cell viability” value ([12]; 0.625 to 20 µM, MTT (Figure S2)) was “clear dose-dependent effects” and the EC50 ([12]; Homo sapiens, SW-620, 0.625-20 µM, MTT, read-out: EC50 (SW620), cell viability) was 3000 nM.

In the case of O=C(CSc1nccc(=O)n1Cc1ccccc1F)Nc1nc2ccc(C(F)(F)F)cc2s1 [Compound 22], the “Kinase activity of CK1δ in presence of inhibitor” value [1] is reported as “strongly inhibited”, the IC50 [1] is reported as 240 ± 40 nM and the “Reduction of CK1α activity” value [2] is reported as “at least 50%”. The “Kinase activity of CK1γ in presence of inhibitor” value [3] was “not affected”, the “Kinase activity of CK1ε in presence of inhibitor” value [4] was “strongly inhibited” and the “Reduction of cell viability, HCT-116” value ([9]; 1.25 µM) was “approximately 30%”. The “Reduction of cell viability, HT-29” value [10] was “approximately 35%”, the “Reduction of cell viability, SW480” value [11] was “approximately 35%” and the “Reduction of cell viability, SW620” value [12] was 25%.
